Literature values, collected in patent US20100028432A1, “FORMULATIONS OF ACTIVE PRINCIPLES INCORPORATED IN SLNS SUITABLE FOR TRANSDERMAL ADMINISTRATION” (NANOVECTOR S.R.L., priority 2006, published 2010).

What was measured:
[1] = in vivo
[2] = intravenous bolus injection
[3] = administered orally
[4] = transdermal systems of U.S. Pat. No. 5,508,039 containing melatonin powder and an absorption enhancer; in vitro tests

Row | Compound | elimination time [1] | half-life [2] | bioavailability [3] | plasma clearance ([3]; marked first-pass hepatic metabolism) | half-life of melatonin [4]
1 | CN1CCc2cccc3c2[C@H]1Cc1ccc(O)c(O)c1-3 [Apomorphine] | about 33 minutes |  |  |  | 
2 | COc1ccc2[nH]cc(CCNC(C)=O)c2c1 [melatonin, N-acetyl-5-methoxytryptamine] |  | around 40 minutes | low and variable bioavailability | rapid plasma clearance | ≤ 2 h
